Assay results from USRE40086E1, “Method for treating bacterial infection with novel 7-substituted-9-substituted amino 6-demethyl-6-deoxytetracyclines” (Wyeth Holdings Corporation, priority 1991, dated 2008).
Where a name gives a salt, the structure may show the parent alone. Read-outs that look alike come from different tables or passages of the source.

How the values were obtained:
[1] = test system: E. coli UBMS 88-2 (Sensitive); experiment: MIC, agar dilution; assay type: cell-based; conditions: Escherichia coli; E. coli UBMS 88-2 (Sensitive); read-out: MIC
[2] = test system: Escherichia coli; experiment: MIC against clinical isolates (Table V, A and O); assay type: cell-based; conditions: Escherichia coli clinical isolates, (10) tested
[3] = test system: N. gonorrhoeae IL 611 (Sensitive); experiment: MIC, agar dilution; assay type: cell-based; conditions: Neisseria gonorrhoeae; N. gonorrhoeae IL 611 (Sensitive); read-out: MIC
[4] = test system: Shigella spp.; assay type: cell-based; conditions: [14] tested
[5] = test system: Proteus spp. indole+; experiment: MIC against clinical isolates (Table V, A and O); assay type: cell-based; conditions: Proteus spp. indole+ clinical isolates, (9) tested
[6] = test system: Neisseria gonorrhoeae; experiment: MIC vs recent clinical and agricultural isolates (Table V, KK); assay type: cell-based; conditions: [14] tested
[7] = test system: E. faecalis UBMS 90-7 (tetM); experiment: MIC, agar dilution; assay type: cell-based; conditions: Enterococcus faecalis
[8] = test system: N. gonorrhoeae 6418 (tetM); experiment: MIC, agar dilution; assay type: cell-based; conditions: Neisseria gonorrhoeae
[9] = test system: Escherichia coli (Agricultural); experiment: MIC vs recent clinical and agricultural isolates (Table V, KK); assay type: cell-based; conditions: [15] tested
[10] = test system: Bacteroides spp.; experiment: as above; assay type: cell-based; conditions: [9] tested
[11] = test system: Streptococcus pyogenes; experiment: as above; assay type: cell-based; conditions: [10] tested
[12] = test system: Enterococcus faecium; experiment: MIC against clinical isolates (Table V, A and O); assay type: cell-based; conditions: Enterococcus faecium clinical isolates, (11) tested
[13] = test system: Escherichia coli (Clinical); experiment: MIC vs recent clinical and agricultural isolates (Table V, KK); assay type: cell-based; conditions: [30] tested
[14] = test system: Clostridium perfringens; assay type: cell-based; conditions: [16] tested
[15] = test system: E. faecalis 12201; experiment: MIC, agar dilution; assay type: cell-based
[16] = test system: S. aureus UBMS 90-2; experiment: In vivo antibacterial evaluation, acute lethal infection in mice; conditions: Staphylococcus aureus, UBMS902, sc, read-out: ED50, median effective dose protecting 50% of the infected mice; mice infected with S. aureus UBMS 90-2 (tetM), single subcutaneous dosing
Source text: (§1) In Vivo Antibacterial Evaluation (Table VII)

[17] = test system: S. aureus UBMS 90-1; experiment: as above; conditions: Staphylococcus aureus, UBMS901, sc, read-out: ED50, median effective dose protecting 50% of the infected mice; mice infected with S. aureus UBMS 90-1 (tetM), single subcutaneous dosing
Source text: as §1

[18] = test system: Enterococcus faecalis; experiment: MIC against clinical isolates (Table V, A and O); assay type: cell-based; conditions: Enterococcus faecalis clinical isolates, (14) tested
[19] = test system: S. haemolyticus AVAH 88-3; experiment: MIC, agar dilution; assay type: cell-based
[20] = test system: E. coli J3272 Tet sens.; experiment: MIC, agar dilution (Table IA); assay type: cell-based; conditions: unit assumed
[21] = test system: Ps. acruginosa ATCC 27853; experiment: MIC, agar dilution (Table IA); assay type: cell-based; conditions: unit assumed
[22] = test system: Wild Type S30 extract, E. coli strain MRE600 (tetracycline sensitive); experiment: E. coli in vitro transcription and protein translation, 35S-methionine incorporation (Table VIII)
[23] = test system: S. aureus IVES 2943 (meth. resistant); experiment: MIC, agar dilution; assay type: cell-based; conditions: S. aureus IVES 2943; Table IA; unit assumed
[24] = test system: S. aureus SMITH (sens); experiment: In vivo antibacterial evaluation, acute lethal infection in mice; conditions: Intraveneous
[25] = test system: S. mariescens FDOR 8733; experiment: MIC, agar dilution (Table IA); assay type: cell-based; conditions: unit assumed
[26] = test system: Clostridium spp.; assay type: cell-based; conditions: [9] tested
[27] = test system: E. coli J3272 TetD; experiment: MIC, agar dilution (Table IA); assay type: cell-based; conditions: unit assumed
[28] = test system: S. aureus NEMC 8769/89-4; experiment: MIC, agar dilution (Table IA); assay type: cell-based; conditions: unit assumed
[29] = test system: S. aureus IVES 1983 (meth. resistant); experiment: MIC, agar dilution; assay type: cell-based; conditions: S. aureus IVES 1983; Table IA; unit assumed
[30] = test system: TetM S30 extract, derivative of E. coli MRE600 containing the tetM determinant; experiment: E. coli in vitro transcription and protein translation, 35S-methionine incorporation (Table VIII)
[31] = test system: E. coli #311 (MP); experiment: MIC, agar dilution (Table IA); assay type: cell-based; conditions: unit assumed
[32] = test system: E. coli J2175; experiment: MIC, agar dilution (Table IA); assay type: cell-based; conditions: unit assumed
[33] = test system: E. coli MC4100 TetB; experiment: MIC, agar dilution (Table IA); assay type: cell-based; conditions: unit assumed
[34] = test system: E. coli PRP1 TetA; experiment: MIC, agar dilution (Table IA); assay type: cell-based; conditions: unit assumed
[35] = test system: X. maltophilia NEMC 87210; experiment: MIC, agar dilution (Table IA); assay type: cell-based; conditions: unit assumed
[36] = test system: Providencia spp.; experiment: MIC vs recent clinical and agricultural isolates (Table V, KK); assay type: cell-based; conditions: [13] tested
[37] = test system: Salmonella spp. (Clinical); assay type: cell-based; conditions: [11] tested

## CN(C)c1ccc(O)c2c1C[C@H]1C[C@H]3[C@H](N(C)C)C(O)=C(C(N)=O)C(=O)[C@@]3(O)C(O)=C1C2=O [Compound O, 7-(Dimethylamino)-6-demethyl-6-deoxytetracycline hydrochloride (minocycline hydrochloride), reference compound]
[1]
  MIC: 0.5 mg/L
[2]
  MIC Range: 0.12 to 32.00 mg/L
[2]; read-out: MIC50
  MIC50: 0.25 mg/L
[2]; read-out: MIC90
  MIC90: 16 mg/L
[3]
  MIC: 0.5 mg/L
[4]
  MIC (range over isolates): 0.25 to 8 mg/L
[5]; read-out: MIC50
  MIC50: 16 mg/L
[5]; read-out: MIC90
  MIC90: > 32 mg/L
[6]
  MIC (range over isolates): 0.5 to 64 mg/L
[7]
  MIC: 8 mg/L
[8]
  MIC: > 32 mg/L
[9]
  MIC (range over isolates): 1 to 16 mg/L
[10]
  MIC (range over isolates): 0.03 to 16 mg/L
[11]
  MIC (range over isolates): 0.03 to 2 mg/L
[12]
  MIC Range: <0.015 to 16.00 mg/L
[12]; read-out: MIC50
  MIC50: 8 mg/L
[12]; read-out: MIC90
  MIC90: 16 mg/L
[13]
  MIC (range over isolates): 0.25 to 32 mg/L
[14]
  MIC (range over isolates): >0.008 to 16 mg/L
[15]; E. faecalis 12201, hydrochloride
  MIC: 8 mg/L
[15]; Enterococcus faecalis, 12201, E. faecalis 12201, read-out: MIC
  MIC: 4 mg/L
[16]
  ED50: 3 mg/kg
[17]
  ED50: 1.7 mg/kg
[18]
  MIC Range: <0.015 to 16.00 mg/L
[18]; read-out: MIC50
  MIC50: 4 mg/L
[18]; read-out: MIC90
  MIC90: 16 mg/L
[19]; S. haemolyticus AVAH 88-3, hydrochloride
  MIC: 0.06 mg/L
[19]; Staphylococcus haemolyticus, AVAH883, S. haemolyticus AVAH 88-3, read-out: MIC
  MIC: 0.03 mg/L

## CN(C)CC(=O)Nc1cc(N(C)C)c2c(c1O)C(=O)C1=C(O)[C@]3(O)C(=O)C(C(N)=O)=C(O)[C@@H](N(C)C)C3CC1C2.Cl.Cl (stereo partly drawn) [KK, [4S-(4alpha,12aalpha)]-4,7-Bis(dimethylamino)-9-[[(dimethylamino)acetyl]amino]-1,4,4a,5,5a,6,11,12a-octahydro-3,10,12,12a-tetrahydroxy-1,11-dioxo-2-naphthacenecarboxamide dihydrochloride]
[20]
  Antibacterial activity (MIC): 0.12 mg/L
[21]
  Antibacterial activity (MIC): 4 mg/L
[4]
  MIC (range over isolates): 0.06 to 0.5 mg/L
[6]
  MIC (range over isolates): 0.25 to 1 mg/L
[22]; 0.03 mg/ml
  % INHIBITION Wild Type S30: 81%
[22]; 0.06 mg/ml
  % INHIBITION Wild Type S30: 82%
[22]; 0.5 mg/ml
  % INHIBITION Wild Type S30: 90%
[22]; 1.0 mg/ml
  % INHIBITION Wild Type S30: 92%
[23]
  Antibacterial activity (MIC): 1 mg/L
[24]
  ED50: 0.68 mg/kg
[25]
  Antibacterial activity (MIC): 2 mg/L
[9]
  MIC (range over isolates): 0.12 to 4 mg/L
[26]
  MIC (range over isolates): 0.015 to 0.12 mg/L
[27]
  Antibacterial activity (MIC): 0.12 mg/L
[10]
  MIC (range over isolates): 0.03 to 1 mg/L
[28]
  Antibacterial activity (MIC): 0.06 mg/L
[29]
  Antibacterial activity (MIC): 1 mg/L
[11]
  MIC (range over isolates): 0.06 to 0.12 mg/L
[13]
  MIC (range over isolates): 0.12 to 4 mg/L
[14]
  MIC (range over isolates): 0.03 to 1 mg/L
[30]; 0.03 mg/ml
  % INHIBITION TetM S30: 75%
[30]; 0.06 mg/ml
  % INHIBITION TetM S30: 89%
[30]; 0.5 mg/ml
  % INHIBITION TetM S30: 96%
[30]; 1.0 mg/ml
  % INHIBITION TetM S30: 95%
[15]; Enterococcus 12201, Table IA, unit assumed
  Antibacterial activity (MIC): 0.12 mg/L
[31]
  Antibacterial activity (MIC): 0.25 mg/L
[32]
  Antibacterial activity (MIC): 0.25 mg/L
[33]
  Antibacterial activity (MIC): 0.25 mg/L
[34]
  Antibacterial activity (MIC): 1 mg/L
[35]
  Antibacterial activity (MIC): 0.25 mg/L
[36]
  MIC (range over isolates): 2 to 8 mg/L
[37]
  MIC (range over isolates): 0.25 to 0.5 mg/L
[19]; S. hemolyticus AVHAH 88-3, Table IA, unit assumed
  Antibacterial activity (MIC): 0.12 mg/L
